In patent US5559150A, “N,N-disulfonylated aminobenzene carboxlic acids and the use thereof as thrombin inhibitors” (3-Dimensional Pharmaceuticals, Inc., priority 1995, dated 1996):

What was measured:
[1] = biological target: T1, Purified human α-thrombin (Homo sapiens, UniProt P00734); assay: In vitro inhibition of purified thrombin (hydrolysis of peptide p-nitroanilide substrate); format: biochemical
T1 construct: Purified human α-thrombin; purchased Enzyme Research Laboratories Inc
Procedure: (§1) All assays are based on the ability of the test compound to inhibit the hydrolysis of a peptide p-nitroanilide substrate. In a typical experiment, substrate is prepared in DMSO, and diluted into an assay buffer consisting of 50 mM HEPES, 130 mM NaCl, pH 7.5. The final concentration for each of the substrates is listed below. All substrate concentrations are at least 10-fold lower than Km to insure inhibition is competitive. Test compounds are prepared as a 1 mg/ml solution in DMSO, and 3 additional 10-fold dilutions in DMSO are prepared. Enzyme solutions are prepared at the concentrations listed below in assay buffer.
(§2) In a typical IC50 determination, into each well of a 96 well plate is pipetted 280 uL of substrate solution, 10 μL of inhibitor solution, and the plate allowed to thermally equilibrate at 37° C. in a Molecular Devices Plate Reader for >10 minutes. Reactions were initiated by the addition of a 20 μL aliquot of enzyme, and the absorbance increase at 405 nm is recorded for 15 minutes. Data corresponding to less than 10% of the total substrate hydrolysis was used in the calculations. The ratio of the velocity (rate of the change in absorbance as a function of time) for a sample containing no inhibitor is divided by the velocity of a sample containing inhibitor, and is plotted as a function of inhibitor concentration. […]

Factor Xa = biological target: T2, Factor Xa (Homo sapiens, UniProt P00742); assay: In vitro inhibition of purified Factor Xa (hydrolysis of peptide p-nitroanilide substrate); format: biochemical; details: Bz-Ile-Glu-Gly-Arg-pNa substrate; 10 nM Factor Xa; pH 7.5, 37° C.
T2 construct: purchased Enzyme Research Laboratories Inc
Procedure: as §1
as §2, with “Data corresponding to less than 10% of the total substrate hydrolysis was used in the calculations.” left out
Factor Xa activity was assessed as the ability to hydrolyse the substrate Bz-Ile-Glu-Gly-Arg-pNa (obtained from Sigma Chemical Company, St Louis, Mo.). […]

T2 sequence (P00742 235-488 limits assumed): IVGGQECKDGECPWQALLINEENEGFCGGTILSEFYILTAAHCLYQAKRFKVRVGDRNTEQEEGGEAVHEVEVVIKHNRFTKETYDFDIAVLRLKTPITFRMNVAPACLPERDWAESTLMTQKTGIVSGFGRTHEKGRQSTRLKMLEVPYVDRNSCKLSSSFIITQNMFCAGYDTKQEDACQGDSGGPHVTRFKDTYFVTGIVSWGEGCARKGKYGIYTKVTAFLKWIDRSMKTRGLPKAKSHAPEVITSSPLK
T2 sequence (P00742 41-179 partner limits assumed): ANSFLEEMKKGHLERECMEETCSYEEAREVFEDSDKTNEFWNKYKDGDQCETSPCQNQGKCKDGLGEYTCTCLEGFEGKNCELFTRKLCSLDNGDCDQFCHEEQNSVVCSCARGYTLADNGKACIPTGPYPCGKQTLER

IC50 ([1]; Bz-Phe-Val-Arg-pNa substrate, 36 nM thrombin, pH 7.5, 37° C.): 0.8 µM
IC50 (Factor Xa): 59 µM
SMILES: O=C(O)c1cccc(N(S(=O)(=O)c2ccc3ccccc3c2)S(=O)(=O)c2ccc3ccccc3c2)c1 [Example 4, 3-[Bis[(2-naphthalenyl)sulfonyl]amino]benzoic Acid]
inhibition of thrombin, potency and selectivity (in words) ([1]; conclusion from Table 1, selectivity versus other serine proteases such as plasmin): selective and highly potent inhibitors of thrombin
